The source of these data is patent US20180236105A1, “METHODS FOR TREATING NEURODEGENERATIVE DISEASES USING GENE THERAPY TO DELAY DISEASE ONSET AND PROGRESSION WHILE PROVIDING COGNITIVE PROTECTION” (UNIVERSITY OF IOWA RESEARCH FOUNDATION, priority 2015, published 2018).

Series [1] deals with Cln2−/− mouse embryo fibroblast cells. Description: caTPP1 neutralization antibody assay (NAbs in dog CSF/serum). Type of series: cell-based. The method, then:
To assess neutralizing Abs (Nabs) in CSF, Cln2−/− mouse embryo fibroblast cells were used. Sixteen hours before the assay, 1.0×10^5 cells/well were plated onto 24 wells plate the day before, and dog CSF was heat inactivated at 56° C. for 30 minutes, diluted 1:10, and then pre-incubated with 1.75 nM of TPP1 at 37° C. for one hour. The mixture was applied to cells for three hours at 37° C. after which the cells were washed with 37° C. HBSS (Ca^2+ and Mg^2+) and then homogenized in 100 μl of ice cold homogenization buffer-0.1% TritonX-100 in normal saline with complete protease inhibitor cocktail (Roche, Mannheim, Germany). Insoluble material was removed by centrifugation at 21×10^3 rcf at 4° C. for 10 minutes and TPP1 activity detected as described above. The results were calculated as percentage of activity obtained from CSF collected prior to vector administration.

The subject of the next series is CLN2−/− dogs. Description: Cerebrospinal fluid TPP1 enzyme activity assay. Type of series: in vivo, dog. The conditions noted are these: for CSF TPP1 activity after introduction of MMF: with cyclosporine and rAAV.caTPP1. From the text: Long-haired miniature Dachshunds were bred and housed at the University of Missouri in facilities overseen by the Office of Animal Resources (OAR). TPP1-null animals were generated from heterozygous breeding (Awano, 2006). All puppies were genotyped by PCR. In addition to the standard care provided by the OAR, the dogs were socialized on a daily basis throughout the study. All procedures involving dogs were reviewed and approved by the University of Missouri Animal Care and Use Committee and conformed to the National Institutes of Health Guide for the Care and Use of Laboratory Animals. Intraventricular infusions were performed over 25 minutes using the Brainsight™ neuronavigation system equipped with a 26 gauge 12 cm needle. Cyclosporine 10 mg/kg twice daily by mouth was administered to all of the dogs in this study starting one to two weeks prior to the gene therapy vector administration. The dose was gradually tapered after 2 months to once daily, which was continued for the duration of the study. A 10-20 mg/kg daily dose by mouth of mycophenolate mofetil (MMF) was instituted, as indicated in the results, and tapered after 2 to several months depending on tolerability.
TPP1 activity was assayed via a modification of previously described methods (Chang et al., 2008; Tian et al., 2006). Samples were homogenized in 300 μl ice-cold homogenization buffer (0.1% Triton X-100 in normal saline with complete protease inhibitor cocktail, Roche, Mannheim, Germany). Insoluble material was removed by centrifugation at 21×10^3 rcf at 4° C.×15 minutes, and protein quantified by DC Protein Assay (Biorad, Hercules, Calif.). […] Plates were read in a Safire 2 microplate reader (Tecan., Mannedorf, Switzerland) at 37° C. using the 460-nm emission filter. […]
Samples were concentrated 3.5-fold using Amicon Ultra-0.5 Centrifugal filter (Ultracel-10K. Millipore Corporation) at 21×10^3 rcf for 5 minutes at 4° C. Activated TPP1 was quantified as in tissue samples.

In another series the test system is dog disease model. The conditions noted are these: cited from earlier work.
Where [2] appears, read: MMF 5 days prior to rAAV.caTPP1 delivery, DC018.

On to `COc1c(C)c2c(c(O)c1C/C=C(\C)CCC(=O)OCCN1CCOCC1)C(=O)OC2` [MMF, mycophenolate mofetil], for which, in series [1] (setting [2]), the anti-TPP1 antibodies entry is reported as “did not appear”. Besides, the anti-TPP1 immune responses result in series [1] (MMF at the time of or before AAV delivery) was “reduced, inhibited or dramatically delayed”. For the same molecule, in series [1] (MMF by 33 days post-vector, with cyclosporine and rAAV.caTPP1), the “anti-TPP1 Ab titers” value is “reduction in anti-TPP1 Ab titers”. Also, the “CSF TPP1 activity” value in the series with CLN2−/− dogs (setting [2]) is “robust and sustained”. In addition, the “CSF TPP1 activity after introduction of MMF” value in the series on CLN2−/− dogs (MMF by 33 days post-vector, DC015, DC016) is “increase in CSF TPP1 activity”; in the series with CLN2−/− dogs (MMF from 44 days post-vector, DC013, DC014) it was “did not result in a recovery of TPP1 activity”.

B1: recombinant human TPP1: recombinant human TPP1 infused into the lumbar subarachnoid space or lateral ventricle (Vuillemenot et al., 2015) (protein, UniProt O14773 196-563, looked up)
Tripeptidyl-peptidase 1: LHLGVTPSVIRKRYNLTSQDVGSGTSNNSQACAQFLEQYFHDSDLAQFMRLFGGNFAHQASVARVVGQQGRGRAGIEASLDVQYLMSAGANISTWVYSSPGRHEGQEPFLQWLMLLSNESALPHVHTVSYGDDEDSLSSAYIQRVNTELMKAAARGLTLLFASGDSGAGCWSVSGRHQFRPTFPASSPYVTTVGGTSFQEPFLITNEIVDYISGGGFSNVFPRPSYQEEAVTKFLSSSPHLPPSSYFNASGRAYPDVAALSDGYWVVSNRVPIPWVSGTSASTPVFGGILSLINEHRILSGRPPLGFLNPRLYQQHGAGLFDVTRGCHESCLDEEVEGQGFCSGPGWDPVTGWGTPNFPALLKTLLNP
Turning to B1, in the series on dog disease model (bolus infusion), the anaphylactic reactions result is on record as “Anaphylactic reactions were noted”. Besides, the “immune responses to recombinant protein” value in the series with dog disease model (infused into the lumbar subarachnoid space or lateral ventricle) is reported as “robust anti-TPP1 responses”.
